The numbers were not newly measured in paper PMC8679591, “FAPI-74 PET/CT Using Either ^18F-AlF or Cold-Kit ^68Ga Labeling: Biodistribution, Radiation Dosimetry, and Tumor Delineation in Lung Cancer Patients” (Journal of Nuclear Medicine, 2021), which cites them from elsewhere.

For `O=C([O-])CN(CCN(CC(=O)[O-])Cc1cc(CCC(=O)NCCCCCC(=O)NCCCC[C@H](NC(=O)N[C@@H](CCC(=O)O)C(=O)O)C(=O)O)ccc1[O-])Cc1cc(CCC(=O)O)ccc1[O-].[68Ga+3].[OH3+]` [^68Ga-PSMA-11], the Effective dose is recorded as 0.023 mSv/MBq.

As for `CC(C)(C)n1ncc(OCc2ccc(COCC[18F])cc2)c(Cl)c1=O` [^18F-flurpiridaz], the Effective dose was 0.019 mSv/MBq.

With `CNc1ccc(/C=C/c2ccc(OCCOCCOCC[18F])cc2)cc1` [^18F-flurbetaben], the Effective dose is listed as 0.015 mSv/MBq.

On to `N[C@@H](C[C@H](CCC[18F])C(=O)O)C(=O)O` [(S)-4-(3-^18F-fluoropropyl)-L-glutamic acid], for which the Effective dose was 0.032 mSv/MBq.

In the case of `C[N+](C)(CF)CCO` [^18F-fluorocholine], the Effective dose is listed as 0.031 mSv/MBq.

For the molecule `N#C[C@@H]1CCCN1C(=O)CNC(=O)c1ccnc2ccc(OCCCN3CCN(C(=O)CN4CCN(CC(=O)O)CCN(CC(=O)O)CCN(CC(=O)O)CC4)CC3)cc12` [^68Ga-FAPI-2, metal not drawn], the Effective dose is 0.008–0.015 mSv/MBq.

As to `Cc1cn([C@H]2C[C@H]([18F])[C@@H](CO)O2)c(=O)[nH]c1=O` [^18F-3′-deoxy-3′-^18F-fluorothymidine, 3′-deoxy-3′-^18F-fluorothymidine], the Effective dose was 0.028 mSv/MBq.

Turning to `N[C@@H](Cc1ccc(OCC[18F])cc1)C(=O)O` [O-(2-^18F-fluoroethyl)-L-tyrosine], the Effective dose is reported as 0.016 mSv/MBq.

`O=[N+]([O-])c1nccn1CC(O)C[18F]` (centres unmarked) [^18F-fluoromisonidazole]: the Effective dose is given as 0.013 mSv/MBq.

Regarding `N#C[C@@H]1CC(F)(F)CN1C(=O)CNC(=O)c1ccnc2ccc(OCCCN3CCN(C(=O)CN4CCN(CC(=O)O)CCN(CC(=O)O)CCN(CC(=O)O)CC4)CC3)cc12` [^68Ga-FAPI-4, metal not drawn], the Effective dose is given as 0.008–0.015 mSv/MBq.

As for `O=C(O)CC[C@H](NC(=O)N[C@@H](CCCCNC(=O)[C@H](Cc1ccc2ccccc2c1)NC(=O)c1ccc(CNC(=O)[C@H](CCC(=O)O)NC(=O)[C@H](CCC(=O)O)NC(=O)c2ccc([18F])nc2)cc1)C(=O)O)C(=O)O` [^18F-PSMA-1007], the Effective dose was 0.022 mSv/MBq.
